Source: patent US20090018175A1, “Pharmaceutical excipient complex” (priority 2007, published 2009)
Like-named read-outs stand apart in the source and are kept apart here.

Legend:
[1] = Stability of the tablet produced according to Example 5 (impurity content on storage); type: physicochemical; settings: tablet of Example 5, four days at 70° C., 100 percent relative humidity
Protocol: As used herein, the term “stable” with reference to candesartan cilexetil relates to candesartan cilexetil having about 0.01% to about 0.5% of desethyl-candesartan (“desethyl-CNS”) impurity present in the total weight of the composition, after storage for four days at a temperature of 65° C. and a relative humidity of 100 percent; and/or having about 0.01% to about 0.5% of 2-N-ethyl candesartan (“2-N-ethyl CNS”) impurity present in the total weight of the composition, after storage for four days at a temperature of 65° C. and a relative humidity of 100 percent; and/or having about 0.01% to about 0.2% of impurities other than desethyl-CNS and 2-N-ethyl CNS present in the total weight of the composition, after storage for four days at a temperature of 65° C. and a relative humidity of 100 percent.

[2] = cited from earlier work

degradation of candesartan cilexetil when tabletted with the excipient complex (conclusion) [1]: did not degrade significantly
Structure (SMILES): CCOc1nc2cccc(C(=O)OC(C)OC(=O)OC3CCCCC3)c2n1Cc1ccc(-c2ccccc2-c2nnn[nH]2)cc1 (racemic) [candesartan cilexetil, (±)-1-[[(cyclohexyloxy)carbonyl]oxy]ethyl-2-ethoxy-1-[[2′-(1H-tetrazol-5-yl)[1,1′biphenyl]-4-yl]methyl]-1H-benzimidazole-7-carboxylate]
solubility ([2]; in methanol): sparingly soluble
solubility ([2]; in water): sparingly soluble
